ChEMBL document CHEMBL4888484, “Replenishing the malaria drug discovery pipeline: Screening and hit evaluation of the MMV Hit Generation Library 1 (HGL1) against asexual blood stage Plasmodium falciparum ,using a nano luciferase reporter read-out” (2022)

What was measured:
[1] = tested on: Plasmodium falciparum; assay: Hit confirmation in dose-response curve in NF54 pLDH assay, at 72h; type: functional, organism-based; parameters: timepoint 72 hour; details: NF54, Erythrocyte
[2] = tested on: Plasmodium falciparum; assay: Hit confirmation in dose-response curve in NF54 nanoGlo assay, at 72h; type: functional, organism-based, Erythrocyte; parameters: timepoint 72 hour; details: Plasmodium falciparum, NF54, Erythrocyte, 72 h
[3] = tested on: Plasmodium falciparum; assay: Hit confirmation in dose-response curve in Dd2 pLDH assay, at 72h; type: functional, organism-based; parameters: timepoint 72 hour; details: Dd2, Erythrocyte
[4] = tested on: Plasmodium falciparum; assay: Hit confirmation in dose-response curve in NF54 nanoGlo assay, at 12h; type: functional, organism-based, Erythrocyte; parameters: timepoint 12 hour; details: Plasmodium falciparum, NF54, Erythrocyte, 12 h
[5] = Hit confirmation in dose-response curve in HepG2 cytotoxicity assay, at 72h; type: toxicity, cell-based; parameters: timepoint 72 hour; details: human, HepG2 cells

IC50 [1] [µM] | IC50 [2] [µM] | IC50 [3] [µM] | IC50 [4] [µM] | SMILES | IC50 at 72 h [5] [µM]
4.37 | 1.51 | 4.17 | 4.07 | CC[C@@]1(C)CCCN(C(=O)Cc2c(C)noc2Cl)C1 | > 10
3.72 | 2.51 | 3.02 | > 10 | CCCN(CCC)CCN1C(=O)[C@@H]2C(C(=O)Nc3cc(Cl)cc(Cl)c3)[C@@H]3C=C[C@]2(O3)C1C(=O)NC1CCCCC1 (stereo not given in full) | > 10
2.75 | 1.58 | 2.75 | 2.04 | Oc1cccc(CN[C@H]2CCCc3occc32)c1Cl | > 10
3.55 | 2.63 | 5.5 | 4.68 | O=C(Nc1ccccc1)Nc1cnc(-n2ccnc2)nc1 | > 10
6.61 | 3.47 | 3.55 | 7.94 | CC1CCN(Cc2ccc(CNCc3c[nH]nc3-c3ccc(F)cc3)cc2)CC1 | > 10
3.02 | 2.04 | 2.69 | > 10 | Cc1ccc2nc(-c3cc4ccccc4o3)cn2c1 | > 10
6.92 | 1.86 | 4.68 | 3.09 | CCOc1cc(C(c2c(C)n(C)n(-c3ccccc3)c2=O)c2c(C)n(C)n(-c3ccccc3)c2=O)ccc1OCc1ccccc1 | > 10
3.89 | 2.4 | 4.17 | 9.12 | Cc1ccc(C(=O)Nc2cc3c4c(c2)C2CCCC2CN4CC2CCCC32)cc1 (stereo not given) | > 10
0.363 | 0.316 | 0.372 | 0.417 | Cc1cnccc1NCCNC1CCN(c2ccc(Cl)cc2)CC1 | 5.25
9.77 | 2.19 | > 10 | 9.33 | COc1ccc2cccc(NC(=O)c3cc(-c4cc(OC)c(OC)c(OC)c4)n[nH]3)c2n1 | > 10
8.32 | 2.51 | 4.27 | 4.79 | Cc1ccc(S(=O)(=O)Nc2c(S(=O)(=O)c3ccc(C)cc3)c3nc4ccccc4nc3n2CCC(C)C)cc1 | > 10
2.95 | 0.759 | 2.29 | 8.51 | C[C@H]1CCC[C@@H](NCCc2ccccc2)CCC/C=C/c2cc(O)cc(O)c2C(=O)O1 | > 10
6.76 | 2.34 | 8.51 | 1.55 | COCCCn1c(NS(=O)(=O)c2ccc3ccccc3c2)c(S(=O)(=O)c2ccc(C)cc2)c2nc3ccccc3nc21 | > 10
2.82 | 2.04 | 2.04 | > 10 | C[N+]12CCCCC1C(OC(=O)C1(c3ccccc3)CCCC1)CCC2 (stereo not given) | > 10
> 10 | > 10 | > 10 | > 10 | CCOc1cc(CNc2cccc3ccccc23)cc(Br)c1OCC(=O)NC(C)(C)C | > 10
3.24 | 1.78 | 3.24 | 2.95 | CC1(C)C(NCC(O)COc2ccc(F)c(F)c2)[C@@H]2CCC[C@@H]21 (stereo not given in full) | > 10
3.89 | 2.29 | 3.63 | 2.95 | OC(CNC1CCCNc2ccccc21)c1ccc(Cl)s1 (stereo not given) | > 10
0.00214 | 0.00195 | > 10 | 0.955 | CC(C)c1nc(C(=O)Nc2[nH]c(=O)ncc2F)cs1 | > 10
2 | 1.32 | 2.51 | > 10 | O=C(Nc1nc2cccc(Cl)c2o1)c1cccc(F)c1 | > 10
6.61 | 2.14 | 3.55 | > 10 | CCC(CC)C(=O)Nc1cc(C2CC2)nn1-c1nc(-c2ccccc2)cc(=O)[nH]1 | > 10
